The target in this test is T1, small-conductance Ca2+-activated K+ channels (SK channels, subtype 2) (Homo sapiens, UniProt Q9H2S1).
T1 construct: expressed in transfected cells; host or cells: HEK293
Nature of the test: whole-cell patch-clamp of ionic current through SK2 channels in HEK293 cells (SC100). Format: cell-based. As to conditions: concentration that increases the basal current by 100%; HEK293 cells expressing SK2 channels. The gist of the method: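 Whole-cell patch-clamp recording of current in HEK293 cells expressing SK2 channels. SC100 is the compound concentration that increases basal current by 100%.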
For orientation: Patch clamp records ionic current or voltage across a cell membrane.

Data on 32 compounds can be found in patent US10774064B2 (Cadent Therapeutics, Inc., priority 2016, dated 2020).

For `CC1(O)CN(c2cc(NC3CCC(F)(F)CC3)nc(-n3ccc(CF)n3)c2)C1` [Compound 326, 1-(2-((4,4-difluorocyclohexyl)amino)-6-(3-(fluoromethyl)-1H-pyrazol-1-yl)pyridin-4-yl)-3-methylazetidin-3-ol], the SC100 entry is listed as “++ (++ means 200 nM-1000 nM)”.

For `CC(=O)NCc1cc(NC2CCC(F)(F)CC2)nc(-n2ccc(CF)n2)n1` [Compound 327, N-((6-((4,4-difluorocyclohexyl)amino)-2-(3-(fluoromethyl)-1H-pyrazol-1-yl)pyrimidin-4-yl)methyl)acetamide], the SC100 result is “+ (+ means >1 uM)”.

On to `O=C(NCc1cc(NC2CCC(F)(F)CC2)nc(-n2ccc(CF)n2)n1)C1CCC1` [Compound 328, N-((6-((4,4-difluorocyclohexyl)amino)-2-(3-(fluoromethyl)-1H-pyrazol-1-yl)pyrimidin-4-yl)methyl)cyclobutanecarboxamide], for which the SC100 entry is “+ (+ means >1 uM)”.

In the case of `CC(C)(C)C(=O)N1CC(Oc2cc(NC3CCC(F)(F)CC3)nc(-c3nc(C(F)F)cs3)n2)C1` [Compound 329, 1-(3-((6-((4,4-difluorocyclohexyl)amino)-2-(4-(difluoromethyl)thiazol-2-yl)pyrimidin-4-yl)oxy)azetidin-1-yl)-2,2-dimethylpropan-1-one], the SC100 result was “++ (++ means 200 nM-1000 nM)”.

For `COC(=O)N1CC(Oc2cc(NC3CCC(F)(F)CC3)nc(-c3nc(C(F)F)cs3)n2)C1` [Compound 330, methyl 3-((6-((4,4-difluorocyclohexyl)amino)-2-(4-(difluoromethyl)thiazol-2-yl)pyrimidin-4-yl)oxy)azetidine-1-carboxylate], the SC100 result was “++ (++ means 200 nM-1000 nM)”.

On to `CC1NC(c2cc(NC3CCC(F)(F)CC3)nc(-n3ccc(CF)n3)n2)=NO1` (centres unmarked) [Compound 331, N-(4,4-difluorocyclohexyl)-2-(3-(fluoromethyl)-1H-pyrazol-1-yl)-6-(5-methyl-4,5-dihydro-1,2,4-oxadiazol-3-yl)pyrimidin-4-amine], for which the SC100 entry is given as “+ (+ means >1 uM)”.

Consider `FC1(F)CCC(Nc2cc(N3CCOCC3)nc(-c3nc(C(F)(F)F)cs3)n2)CC1` [Compound 332, N-(4,4-difluorocyclohexyl)-6-morpholino-2-(4-(trifluoromethyl)thiazol-2-yl)pyrimidin-4-amine], for which the SC100 result was “++ (++ means 200 nM-1000 nM)”.

Turning to `O=C(NCc1cc(NC2CCC(F)(F)CC2)nc(-n2ccc(CF)n2)n1)C1COC1` [Compound 333, N-((6-((4,4-difluorocyclohexyl)amino)-2-(3-(fluoromethyl)-1H-pyrazol-1-yl)pyrimidin-4-yl)methyl)oxetane-3-carboxamide], the SC100 entry is “+ (+ means >1 uM)”.

For the compound `Cc1nc(-c2cc(NC3CCC(F)(F)CC3)nc(-n3ccc(CF)n3)n2)no1` [Compound 334, N-(4,4-difluorocyclohexyl)-2-(3-(fluoromethyl)-1H-pyrazol-1-yl)-6-(5-methyl-1,2,4-oxadiazol-3-yl)pyrimidin-4-amine], the SC100 entry is listed as “+ (+ means >1 uM)”.

Consider `COC(=O)N1CC(OCc2cc(NC3CCC(F)(F)CC3)nc(-n3ccc(CF)n3)n2)C1` [Compound 335, methyl 3-((6-((4,4-difluorocyclohexyl)amino)-2-(3-(fluoromethyl)-1H-pyrazol-1-yl)pyrimidin-4-yl)methoxy)azetidine-1-carboxylate], for which the SC100 entry is listed as “++ (++ means 200 nM-1000 nM)”.

Turning to `FCc1csc(-c2nc(NC3CCC(F)(F)CC3)cc(N3CCOCC3)n2)n1` [Compound 336, N-(4,4-difluorocyclohexyl)-2-(4-(fluoromethyl)thiazol-2-yl)-6-morpholinopyrimidin-4-amine], the SC100 entry is on record as “++ (++ means 200 nM-1000 nM)”.

In the case of `CC(O)c1csc(-c2nc(NC3CCC(F)(F)CC3)cc(OC3CN(C(=O)C(C)(C)C)C3)n2)n1` (centres unmarked) [Compound 337], the SC100 result was “+ (+ means >1 uM)”.

For `FCc1ccn(-c2nc(NC3CCC(F)(F)CC3)cc(N3CC4(COC4)C3)n2)n1` [Compound 338, N-(4,4-difluorocyclohexyl)-2-(3-(fluoromethyl)-1H-pyrazol-1-yl)-6-(2-oxa-6-azaspiro[3.3]heptan-6-yl)pyrimidin-4-amine], the SC100 result is “++ (++ means 200 nM-1000 nM)”.

For the compound `FC(F)c1csc(-c2nc(NC3CCC(F)(F)CC3)cc(N3CCOCC3)n2)n1` [Compound 339, N-(4,4-difluorocyclohexyl)-2-(4-(difluoromethyl)thiazol-2-yl)-6-morpholinopyrimidin-4-amine], the SC100 result is listed as “++ (++ means 200 nM-1000 nM)”.

Consider `CC(O)c1csc(-c2nc(NC3CCC(F)(F)CC3)cc(N3CCOCC3)n2)n1` (centres unmarked) [Compound 340, 1-(2-(4-((4,4-difluorocyclohexyl)amino)-6-morpholinopyrimidin-2-yl)thiazol-4-yl)ethan-1-ol], for which the SC100 entry is listed as “+ (+ means >1 uM)”.

For the compound `CCC(=O)N1CC(Oc2cc(NC3CCC(F)(F)CC3)nc(-c3nc(CF)cs3)n2)C1` [Compound 341, 1-(3-((6-((4,4-difluorocyclohexyl)amino)-2-(4-(fluoromethyl)thiazol-2-yl)pyrimidin-4-yl)oxy)azetidin-1-yl)propan-1-one], the SC100 entry is “++ (++ means 200 nM-1000 nM)”.

As for `CC(C)C(=O)N1CC(Oc2cc(NC3CCC(F)(F)CC3)nc(-c3nc(CF)cs3)n2)C1` [Compound 342, 1-(3-((6-((4,4-difluorocyclohexyl)amino)-2-(4-(fluoromethyl)thiazol-2-yl)pyrimidin-4-yl)oxy)azetidin-1-yl)-2-methylpropan-1-one], the SC100 result is listed as “++ (++ means 200 nM-1000 nM)”.

For `Cc1cc(C)n(-c2cc(C(O)c3ncco3)cc(NC3CCC(F)(F)CC3)n2)n1` (centres unmarked) [Compound 343, (2-((4,4-difluorocyclohexyl)amino)-6-(3,5-dimethyl-1H-pyrazol-1-yl)pyridin-4-yl)(oxazol-2-yl)methanol], the SC100 entry is reported as “++ (++ means 200 nM-1000 nM)”.

On to `COC(=O)N1CC(Oc2cc(NC3CCC(F)(F)CC3)nc(-c3nc(C(C)O)cs3)n2)C1` (centres unmarked) [Compound 344, methyl 3-((6-((4,4-difluorocyclohexyl)amino)-2-(4-(1-hydroxyethyl)thiazol-2-yl)pyrimidin-4-yl)oxy)azetidine-1-carboxylate], for which the SC100 entry is listed as “+ (+ means >1 uM)”.

On to `Cc1cn(-c2cc(OC3COC3)cc(NC3CCC(F)(F)CC3)n2)nc1CF` [Compound 345, N-(4,4-difluorocyclohexyl)-6-(3-(fluoromethyl)-4-methyl-1H-pyrazol-1-yl)-4-(oxetan-3-yloxy)pyridin-2-amine], for which the SC100 entry is “++ (++ means 200 nM-1000 nM)”.

As to `FCc1ccn(-c2nc(NC3CCC(F)(F)CC3)cc(OC3CC(F)C3)n2)n1` (centres unmarked) [Compound 346, N-(4,4-difluorocyclohexyl)-6-(3-fluorocyclobutoxy)-2-(3-(fluoromethyl)-1H-pyrazol-1-yl)pyrimidin-4-amine], the SC100 result is on record as “+ (+ means >1 uM)”.

For the compound `FCc1ccn(-c2nc(NC3CCC(F)(F)CC3)cc(OC3CC(F)(F)C3)n2)n1` [Compound 347, 6-(3,3-difluorocyclobutoxy)-N-(4,4-difluorocyclohexyl)-2-(3-(fluoromethyl)-1H-pyrazol-1-yl)pyrimidin-4-amine], the SC100 entry is “++ (++ means 200 nM-1000 nM)”.

Regarding `CC(C)C(=O)NCc1cc(NC2CCC(F)(F)CC2)nc(-n2ccc(CF)n2)c1` [Compound 348, N-((2-((4,4-difluorocyclohexyl)amino)-6-(3-(fluoromethyl)-1H-pyrazol-1-yl)pyridin-4-yl)methyl)isobutyramide], the SC100 entry is recorded as “++ (++ means 200 nM-1000 nM)”.

Consider `CC(=O)NCc1cc(NC2CCC(F)(F)CC2)nc(-n2cc(C)c(CF)n2)c1` [Compound 349, N-((2-((4,4-difluorocyclohexyl)amino)-6-(3-(fluoromethyl)-4-methyl-1H-pyrazol-1-yl)pyridin-4-yl)methyl)acetamide], for which the SC100 entry was “++ (++ means 200 nM-1000 nM)”.

Consider `Cc1cc(C)n(-c2nc(NC3CCCC(F)(F)C3)cc(C(N)=O)n2)n1` (centres unmarked) [Compound 350, 6-((3,3-difluorocyclohexyl)amino)-2-(3,5-dimethyl-1H-pyrazol-1-yl)pyrimidine-4-carboxamide], for which the SC100 result is “+ (+ means >1 uM)”.

Regarding `Cc1cc(C)n(-c2nc(N[C@H]3CCCC(F)(F)C3)cc([C@H](C)O)n2)n1` [Compound 355, (−)-1-(6-(((S)-3,3-difluorocyclohexyl)amino)-2-(3,5-dimethyl-1H-pyrazol-1-yl)pyrimidin-4-yl)ethan-1-ol], the SC100 result is listed as “+ (+ means >1 uM)”.

Turning to `Cc1cc(C)n(-c2nc(NC3CCCC(F)(F)C3)cc(C(C)(C)O)n2)n1` (centres unmarked) [Compound 356, 2-(6-((3,3-difluorocyclohexyl)amino)-2-(3,5-dimethyl-1H-pyrazol-1-yl)pyrimidin-4-yl)propan-2-ol], the SC100 result is listed as “+ (+ means >1 uM)”.

Turning to `Cc1cc(C)n(-c2nc(CO)cc(NC3CCCC(F)(F)C3)n2)n1` (centres unmarked) [Compound 357, (6-((3,3-difluorocyclohexyl)amino)-2-(3,5-dimethyl-1H-pyrazol-1-yl)pyrimidin-4-yl)methanol], the SC100 entry is given as “+ (+ means >1 uM)”.

Take `Cc1cc(C)n(-c2nc(CF)cc(NC3CCCC(F)(F)C3)n2)n1` (centres unmarked) [Compound 358, N-(3,3-difluorocyclohexyl)-2-(3,5-dimethyl-1H-pyrazol-1-yl)-6-(fluoromethyl)pyrimidin-4-amine]: the SC100 result is recorded as “+ (+ means >1 uM)”.

For `COc1cc(NC2CCC(F)(F)CC2)nc(-n2nc(C)cc2C)n1` [Compound 360, N-(4,4-difluorocyclohexyl)-2-(3,5-dimethyl-1H-pyrazol-1-yl)-6-methoxypyrimidin-4-amine], the SC100 entry was “++ (++ means 200 nM-1000 nM)”.

With `COc1cc(NC2CCC(F)(F)CC2)nc(-c2nc(C)cs2)n1` [Compound 361, N-(4,4-difluorocyclohexyl)-6-methoxy-2-(4-methylthiazol-2-yl)pyrimidin-4-amine], the SC100 result is reported as “++ (++ means 200 nM-1000 nM)”.

Take `FC1(F)CCC(Nc2cc(N3CCOCC3)nc(-n3ccc(C4CC4)n3)n2)CC1` [Compound 365, 2-(3-cyclopropyl-1H-pyrazol-1-yl)-N-(4,4-difluorocyclohexyl)-6-morpholinopyrimidin-4-amine]: the SC100 entry is “++ (++ means 200 nM-1000 nM)”.
